How the values were obtained:
[1] = tested on: mouse peritoneal macrophages; assay: P. gingivalis phagocytosis and receptor expression by flow cytometry; type: cell-based; conditions: C5a 50 nM or C3a 200 nM, 30-min incubation
Experimental: First, experiments were performed to determine the effect of C5a (50 nM) or C3a (200 nM) on P. gingivalis phagocytosis by unprimed or IFN-γ-primed mouse peritoneal macrophages (FIG. 6A). The phagocytic index was calculated following a 30-min incubation using the following formula: % positive cells for fluorescently labeled P. gingivalis×MFI/100 (extracellular fluorescence was quenched prior to flow cytometry). Mouse macrophages were incubated at 37° C. for 30 min (B) or 24 hours (C) with medium, C5a (50 nM) only, or P. gingivalis (MOI=10:1) with or without C5a (50 nM). The expression levels of the indicated receptors, which coordinately mediate P. gingivalis uptake, were determined by flow cytometry after cell staining with appropriate fluorescently labeled antibodies (FIGS. 6B and 6C). The 30-min time point was examined to determine possible induced surface expression of preformed receptors from intracellular pools. […] Mouse-specific mAbs to TLR2 (clone 6C2), TLR1 (TR23), CD14 (Sa2-8), CD11b (M1/70), and CD18 (M18/2) were obtained from e-Bioscience.

[2] = tested on: phagocytosed P. gingivalis in mouse peritoneal macrophages; type: cell-based, P. gingivalis ATCC 33277; conditions: Pg MOI=10:1; C5a 50 nM or C3a 200 nM; 24 or 48 hours post-infection
Experimental: The viability of phagocytosed P. gingivalis was monitored by an antibiotic protection-based intracellular survival assay, as previously described (Wang et al., 2007, J. Immunol., 179:2349-58). Briefly, mouse peritoneal macrophages were allowed to phagocytose P. gingivalis (MOI=10:1; 5×10^6 bacteria and 5×10^5 cells) for […] at 37° C. This was followed by washing to remove extracellular nonadherent bacteria and 1-hour treatment with antibiotics (300 μg/ml gentamicin and 200 μg/ml metronidazole) to eliminate residual or extracellular adherent bacteria. The macrophages were subsequently cultured overnight (for a total of 24 hours) or for 48 hours Immediately after, the macrophages were washed and lysed in sterile distilled water, and viable counts of internalized P. gingivalis were determined by plating serial dilutions of macrophage lysates on blood agar plates subjected to anaerobic culture.
The viability of phagocytosed P. gingivalis was monitored by an antibiotic protection-based intracellular survival assay, as previously described (Wang et al., 2007, J. Immunol., 179:2349-58)). Briefly, mouse peritoneal macrophages were allowed to phagocytose P. gingivalis (at a MOI=10:1; 5×10^6 bacteria and 5×10^5 macrophages) for 30 min at 37° C. This was followed by washing to remove extracellular nonadherent bacteria and 1-hour treatment with antibiotics (300 μg/ml gentamicin and 200 μg/ml metronidazole) to eliminate residual or extracellular adherent bacteria. The macrophages were subsequently cultured overnight for a total of 24 hours Immediately after, the macrophages were washed and lysed in sterile distilled water and viable counts of internalized P. gingivalis were determined by plating serial dilutions of macrophage lysates on blood agar plates subjected to anaerobic culture.

[3] = tested on: lipid rafts (GM1 ganglioside); assay: FRET of TLR2, C5aR, CXCR4 with GM1 lipid raft marker; type: cell-based, mouse; conditions: MCD 10 mM for 30 min
Experimental: Upon stimulation for 10 min at 37° C. with P. gingivalis, mouse macrophages were labeled with a mixture of Cy3-conjugated (donor) and Cy5-conjugated (acceptor) antibodies, as indicated in FIG. 4I. In additional experiments shown in FIG. 4I, FITC-labeled P. gingivalis was used as donor and TRITC-labeled receptors served as acceptors. The cells were washed and fixed, and energy transfer between various donor-acceptor pairs was calculated from the increase in donor fluorescence after acceptor photobleaching (REF 9, 14). […] The conjugation of antibodies to Cy3 or Cy5 was performed using kits from Amersham Biosciences.
Supplemental experiments also examined the association of TLR2, C5aR, and CXCR4 with GM1 (lipid raft marker) in P. gingivalis-stimulated macrophages (FIG. 10). Mouse macrophages were pretreated (or not) with methyl-β-cyclodextrin (MCD; 10 mM for 30 min) and then stimulated for 10 min with P. gingivalis (Pg; MOI=10:1) or medium only (med). Fluorescence resonance energy transfer (FRET) between TLR2, C5aR, CXCR4, TLR5, or MHC Class I (Cy3-labeled) and the GM1 ganglioside (Cy5-labeled) was measured from the increase in donor (Cy3) fluorescence after acceptor (Cy5) photobleaching. TLR5 and MHC Class I served as negative controls. […] As expected, max FRET values (38±1.2) were not affected by the cell activation status (med vs. Pg) or the use or not of MCD.

| Substance | P. gingivalis phagocytosis [1] | intracellular survival of P. gingivalis in macrophages (viable counts of internalized bacteria) [2] | FRET increase between receptors and GM1 in P. gingivalis-stimulated macrophages [3] |
| --- | --- | --- | --- |
| C3a: related anaphylatoxin C3a from R&D Systems | not significantly affected | not by the related anaphylatoxin C3a | – |
| methyl-β-cyclodextrin [MCD] | – | – | reversal of FRET increase |
